# Source: patent US20070049564A1 (Wyeth, priority 2005, published 2007)
# Read-outs that look alike come from different tables or passages of the source.
# Legend:
# S. aureus GC 6467 = assay: MIC, broth microdilution; settings: Staphylococcus aureus
# E. coli GC 2203 = assay: MIC, broth microdilution; settings: Escherichia coli
# E. faecalis GC 4555 = assay: MIC, broth microdilution; settings: Enterococcus faecalis
# E. coli GC 6465 = assay: MIC, broth microdilution; settings: Escherichia coli
# Description: Antimicrobial susceptibility testing. The in vitro activities of the antibiotics are determined by the broth microdilution method as recommended by the National Committee for Clinical Laboratory Standards (NCCLS) (1). Mueller-Hinton II broth (MHBII)(BBL Cockeysville, Md.) is the medium employed in the testing procedures. Microtiter plates containing serial dilutions of each antimicrobial agent are inoculated with each organism to yield the appropriate density (10^5 CFU/ml) in a 100 μl final volume. The plates are incubated for 18-22 hours at 35° C. in ambient air.
# Representative compounds were first incubated in mouse serum for an hour prior to the in vitro testing against a panel of selected gram-positive and gram-negative bacteria strains. All compounds were also pre-incubated in water for an hour prior to testing as control.
# E. coli GC 2235 = assay: MIC, broth microdilution; settings: Escherichia coli
# S. epidermidis GC 4935 = assay: MIC, broth microdilution; settings: Staphylococcus epidermidis
# E. coli GC 4560 = assay: MIC, broth microdilution; settings: Escherichia coli
# S. typhimurium GC 2172 = assay: MIC, broth microdilution; settings: Salmonella enterica, TYPHIMURIUM
# S. pneumoniae* GC 4465 = assay: MIC, broth microdilution; settings: Streptococcus pneumoniae
# E. faecalis GC 2267 = assay: MIC, broth microdilution; settings: Enterococcus faecalis
# E. faecium GC 4556 = assay: MIC, broth microdilution; settings: Enterococcus faecium
# S. aureus GC 1079 = assay: MIC, broth microdilution; settings: Staphylococcus aureus
# E. coli GC 2234 = assay: MIC, broth microdilution; settings: Escherichia coli
# S. aureus GC 1131 = assay: MIC, broth microdilution; settings: Staphylococcus aureus
# E. coli GC 2231 = assay: MIC, broth microdilution; settings: Escherichia coli
# E. coli GC 2272 = assay: MIC, broth microdilution; settings: Escherichia coli
# E. coli GC 2236 = assay: MIC, broth microdilution; settings: Escherichia coli
# Staph. = assay: Range of MIC for Staph. strains, including MRSA; settings: Staphylococcus aureus
# E. coli GC 2233 = assay: MIC, broth microdilution; settings: Escherichia coli
# S. aureus GC 6466 = assay: MIC, broth microdilution; settings: Staphylococcus aureus
# [1] = GC6467, pre-incubation in human serum
# [2] = GC6467, pre-incubation in mouse serum
# [3] = GC6467, pre-incubation in water
# [4] = GC2203, pre-incubation in human serum
# [5] = GC2203, pre-incubation in mouse serum
# [6] = GC2203, pre-incubation in water
# [7] = GC4555, pre-incubation in human serum
# [8] = GC4555, pre-incubation in mouse serum
# [9] = GC4555, pre-incubation in water
# [10] = GC6465, pre-incubation in human serum
# [11] = GC6465, pre-incubation in mouse serum
# [12] = GC6465, pre-incubation in water
# [13] = GC2235, pre-incubation in human serum
# [14] = GC2235, pre-incubation in mouse serum
# [15] = GC2235, pre-incubation in water
# [16] = GC4935, pre-incubation in human serum
# [17] = GC4935, pre-incubation in mouse serum
# [18] = GC4935, pre-incubation in water
# [19] = GC4560, pre-incubation in human serum
# [20] = GC4560, pre-incubation in mouse serum
# [21] = GC4560, pre-incubation in water
# [22] = GC2267, pre-incubation in human serum
# [23] = GC2267, pre-incubation in mouse serum
# [24] = GC2267, pre-incubation in water
# [25] = GC4556, pre-incubation in human serum
# [26] = GC4556, pre-incubation in mouse serum
# [27] = GC4556, pre-incubation in water
# [28] = GC1079, pre-incubation in human serum
# [29] = GC1079, pre-incubation in mouse serum
# [30] = GC1079, pre-incubation in water
# [31] = GC2234, pre-incubation in human serum
# [32] = GC2234, pre-incubation in mouse serum
# [33] = GC2234, pre-incubation in water
# [34] = GC1131, pre-incubation in human serum
# [35] = GC1131, pre-incubation in mouse serum
# [36] = GC1131, pre-incubation in water
# [37] = GC2231, pre-incubation in human serum
# [38] = GC2231, pre-incubation in mouse serum
# [39] = GC2231, pre-incubation in water
# [40] = GC2272, pre-incubation in human serum
# [41] = GC2272, pre-incubation in mouse serum
# [42] = GC2272, pre-incubation in water
# [43] = GC2236, pre-incubation in human serum
# [44] = GC2236, pre-incubation in mouse serum
# [45] = GC2236, pre-incubation in water
# [46] = MRSA, read-out: Range of MIC, Staph (Mouse Serum)
# [47] = read-out: Minimum inhibitory concentration (MIC), Staph (Human Serum)
# [48] = read-out: Minimum inhibitory concentration (MIC), Staph (Water)
# [49] = GC2233, pre-incubation in human serum
# [50] = GC2233, pre-incubation in mouse serum
# [51] = GC2233, pre-incubation in water
# [52] = GC6466, pre-incubation in human serum
# [53] = GC6466, pre-incubation in mouse serum
# [54] = GC6466, pre-incubation in water
smiles,measurement,setting,value
"CN(C)c1cc(NC(=O)CN(C(=O)OCOC(=O)C2CCC2)C(C)(C)C)c(O)c2c1C[C@H]1C[C@H]3[C@H](N(C)C)C(O)=C(C(N)=O)C(=O)[C@@]3(O)C(O)=C1C2=O [Example 62, ({[(2-{[(5aR,6aS,7S,10aS)-9-(aminocarbonyl)-4,7-bis(dimethylamino)-1,8,10a,11-tetrahydroxy-10,12-dioxo-5,5a,6,6a,7,10,10a,12-octahydrotetracen-2-yl]amino}-2-oxoethyl)(tert-butyl)amino]carbonyl}oxy)methyl cyclobutanecarboxylate]",MIC,S. aureus GC 6467; [1],0.5 µg/mL
same,MIC,S. aureus GC 6467; [2],1 µg/mL
same,MIC,S. aureus GC 6467; [3],0.5 µg/mL
same,MIC,E. coli GC 2203; [4],4 µg/mL
same,MIC,E. coli GC 2203; [5],1 µg/mL
same,MIC,E. coli GC 2203; [6],16 µg/mL
same,MIC,E. faecalis GC 4555; [7],0.5 µg/mL
same,MIC,E. faecalis GC 4555; [8],1 µg/mL
same,MIC,E. faecalis GC 4555; [9],1 µg/mL
same,MIC,E. coli GC 6465; [10],8 µg/mL
same,MIC,E. coli GC 6465; [11],2 µg/mL
same,MIC,E. coli GC 6465; [12],> 64 µg/mL
same,MIC,E. coli GC 2235; [13],2 µg/mL
same,MIC,E. coli GC 2235; [14],0.5 µg/mL
same,MIC,E. coli GC 2235; [15],4 µg/mL
same,MIC,S. epidermidis GC 4935; [16],0.5 µg/mL
same,MIC,S. epidermidis GC 4935; [17],0.5 µg/mL
same,MIC,S. epidermidis GC 4935; [18],0.5 µg/mL
same,MIC,E. coli GC 4560; [19],0.5 µg/mL
same,MIC,E. coli GC 4560; [20],0.25 µg/mL
same,MIC,E. coli GC 4560; [21],0.5 µg/mL
same,MIC,S. typhimurium GC 2172; pre-incubation in human serum,16 µg/mL
same,MIC,S. typhimurium GC 2172; pre-incubation in mouse serum,2 µg/mL
same,MIC,S. typhimurium GC 2172; pre-incubation in water,> 64 µg/mL
same,MIC,S. pneumoniae* GC 4465; pre-incubation in human serum,0.12 µg/mL
same,MIC,S. pneumoniae* GC 4465; pre-incubation in mouse serum,0.12 µg/mL
same,MIC,S. pneumoniae* GC 4465; pre-incubation in water,0.12 µg/mL
same,MIC,E. faecalis GC 2267; [22],0.5 µg/mL
same,MIC,E. faecalis GC 2267; [23],0.5 µg/mL
same,MIC,E. faecalis GC 2267; [24],1 µg/mL
same,MIC,E. faecium GC 4556; [25],1 µg/mL
same,MIC,E. faecium GC 4556; [26],1 µg/mL
same,MIC,E. faecium GC 4556; [27],1 µg/mL
same,MIC,S. aureus GC 1079; [28],0.5 µg/mL
same,MIC,S. aureus GC 1079; [29],1 µg/mL
same,MIC,S. aureus GC 1079; [30],0.5 µg/mL
same,MIC,E. coli GC 2234; [31],2 µg/mL
same,MIC,E. coli GC 2234; [32],1 µg/mL
same,MIC,E. coli GC 2234; [33],8 µg/mL
same,MIC,S. aureus GC 1131; [34],0.5 µg/mL
same,MIC,S. aureus GC 1131; [35],0.5 µg/mL
same,MIC,S. aureus GC 1131; [36],0.5 µg/mL
same,MIC,E. coli GC 2231; [37],4 µg/mL
same,MIC,E. coli GC 2231; [38],0.5 µg/mL
same,MIC,E. coli GC 2231; [39],8 µg/mL
same,MIC,E. coli GC 2272; [40],4 µg/mL
same,MIC,E. coli GC 2272; [41],1 µg/mL
same,MIC,E. coli GC 2272; [42],8 µg/mL
same,MIC,E. coli GC 2236; [43],8 µg/mL
same,MIC,E. coli GC 2236; [44],0.5 µg/mL
same,MIC,E. coli GC 2236; [45],4 µg/mL
same,MIC,Staph.; [46],0.5 to 1 µg/mL
same,MIC,Staph.; [47],0.5 µg/mL
same,MIC,Staph.; [48],0.25 to 1 µg/mL
same,MIC,E. coli GC 2233; [49],4 µg/mL
same,MIC,E. coli GC 2233; [50],2 µg/mL
same,MIC,E. coli GC 2233; [51],8 µg/mL
same,MIC,S. aureus GC 6466; [52],0.5 µg/mL
same,MIC,S. aureus GC 6466; [53],0.5 µg/mL
same,MIC,S. aureus GC 6466; [54],0.25 µg/mL
"CN(C)c1cc(NC(=O)CN(C(=O)OCOC(=O)CCC2CCCCC2)C(C)(C)C)c(O)c2c1C[C@H]1C[C@H]3[C@H](N(C)C)C(O)=C(C(N)=O)C(=O)[C@@]3(O)C(O)=C1C2=O [Example 63, ({[(2-{[(5aR,6aS,7S,10aS)-9-(aminocarbonyl)-4,7-bis(dimethylamino)-1,8,10a,11-tetrahydroxy-10,12-dioxo-5,5a,6,6a,7,10,10a,12-octahydrotetracen-2-yl]amino}-2-oxoethyl)(tert-butyl)amino]carbonyl}oxy)methyl 3-cyclohexylpropanoate]",MIC,S. aureus GC 6467; [1],4 µg/mL
same,MIC,S. aureus GC 6467; [2],2 µg/mL
same,MIC,S. aureus GC 6467; [3],16 µg/mL
same,MIC,E. coli GC 2203; [4],> 64 µg/mL
same,MIC,E. coli GC 2203; [5],1 µg/mL
same,MIC,E. coli GC 2203; [6],> 64 µg/mL
same,MIC,E. faecalis GC 4555; [7],2 µg/mL
same,MIC,E. faecalis GC 4555; [8],1 µg/mL
same,MIC,E. faecalis GC 4555; [9],4 µg/mL
same,MIC,E. coli GC 6465; [10],> 64 µg/mL
same,MIC,E. coli GC 6465; [11],2 µg/mL
same,MIC,E. coli GC 6465; [12],> 64 µg/mL
same,MIC,E. coli GC 2235; [13],> 64 µg/mL
same,MIC,E. coli GC 2235; [14],0.5 µg/mL
same,MIC,E. coli GC 2235; [15],> 64 µg/mL
same,MIC,S. epidermidis GC 4935; [16],2 µg/mL
same,MIC,S. epidermidis GC 4935; [17],2 µg/mL
same,MIC,S. epidermidis GC 4935; [18],4 µg/mL
same,MIC,E. coli GC 4560; [19],2 µg/mL
same,MIC,E. coli GC 4560; [20],0.5 µg/mL
same,MIC,E. coli GC 4560; [21],16 µg/mL
same,MIC,S. typhimurium GC 2172; pre-incubation in human serum,> 64 µg/mL
same,MIC,S. typhimurium GC 2172; pre-incubation in mouse serum,2 µg/mL
same,MIC,S. typhimurium GC 2172; pre-incubation in water,> 64 µg/mL
same,MIC,S. pneumoniae* GC 4465; pre-incubation in human serum,0.12 µg/mL
same,MIC,S. pneumoniae* GC 4465; pre-incubation in mouse serum,0.12 µg/mL
same,MIC,S. pneumoniae* GC 4465; pre-incubation in water,0.12 µg/mL
same,MIC,E. faecalis GC 2267; [22],2 µg/mL
same,MIC,E. faecalis GC 2267; [23],1 µg/mL
same,MIC,E. faecalis GC 2267; [24],16 µg/mL
same,MIC,E. faecium GC 4556; [25],4 µg/mL
same,MIC,E. faecium GC 4556; [26],1 µg/mL
same,MIC,E. faecium GC 4556; [27],0.5 µg/mL
same,MIC,S. aureus GC 1079; [28],2 µg/mL
same,MIC,S. aureus GC 1079; [29],1 µg/mL
same,MIC,S. aureus GC 1079; [30],8 µg/mL
same,MIC,E. coli GC 2234; [31],64 µg/mL
same,MIC,E. coli GC 2234; [32],1 µg/mL
same,MIC,E. coli GC 2234; [33],> 64 µg/mL
same,MIC,S. aureus GC 1131; [34],1 µg/mL
same,MIC,S. aureus GC 1131; [35],1 µg/mL
same,MIC,S. aureus GC 1131; [36],4 µg/mL
same,MIC,E. coli GC 2231; [37],> 64 µg/mL
same,MIC,E. coli GC 2231; [38],1 µg/mL
same,MIC,E. coli GC 2231; [39],> 64 µg/mL
same,MIC,E. coli GC 2272; [40],> 64 µg/mL
same,MIC,E. coli GC 2272; [41],1 µg/mL
same,MIC,E. coli GC 2272; [42],> 64 µg/mL
same,MIC,E. coli GC 2236; [43],> 64 µg/mL
same,MIC,E. coli GC 2236; [44],1 µg/mL
same,MIC,E. coli GC 2236; [45],> 64 µg/mL
same,MIC,Staph.; [46],0.5 to 2 µg/mL
same,MIC,"Staph.; MRSA, read-out: Range of MIC, Staph (Water)",2 to 16 µg/mL
same,MIC,Staph.; [47],1 to 4 µg/mL
same,MIC,Staph.; [48],2 to 16 µg/mL
same,MIC,E. coli GC 2233; [49],> 64 µg/mL
same,MIC,E. coli GC 2233; [50],1 µg/mL
same,MIC,E. coli GC 2233; [51],> 64 µg/mL
same,MIC,S. aureus GC 6466; [52],1 µg/mL
same,MIC,S. aureus GC 6466; [53],0.5 µg/mL
same,MIC,S. aureus GC 6466; [54],2 µg/mL
